Test results: patent US20100113291A1 (CENTRE NATIONAL DE LA RECHERCHE SCIENTIFIQUE, priority 2006, published 2010)

Molecular target: T1, MabA-C60V/S144L (Mycobacterium tuberculosis, UniProt P9WGT3, C60V/S144L)
T1 construct: made in house; host or cells: Escherichia coli
Format: binding
Settings: read-out: KD for the cofactor

Work on `NC(=O)C1=CN([C@@H]2O[C@H](COP(=O)(O)OP(=O)(O)OC[C@H]3O[C@@H](n4cnc5c(N)ncnc54)[C@H](OP(=O)(O)O)[C@@H]3O)[C@@H](O)[C@H]2O)C=CC1` [NADPH] yielded a Kd of 11.2 µM.
